As a reminder, the IC50 is the concentration that gives 50% inhibition. A lower IC50 goes with higher potency. As usually defined, the inhibition is how much of the control response was suppressed.

30 molecules from the Kinase Knowledgebase extract (Sharma et al. 2016) can be followed below.

This test concerns the target MAPK14 (human) (UniProt Q16539). Put plainly: Inhibition of MAPK14 Kinase Activity. Conditions: for inhibition: concentration not given here.

A value given as a limit tells only on which side of the number the result lay.

Chain of MAPK14 (human) (Q16539 whole entry, looked up): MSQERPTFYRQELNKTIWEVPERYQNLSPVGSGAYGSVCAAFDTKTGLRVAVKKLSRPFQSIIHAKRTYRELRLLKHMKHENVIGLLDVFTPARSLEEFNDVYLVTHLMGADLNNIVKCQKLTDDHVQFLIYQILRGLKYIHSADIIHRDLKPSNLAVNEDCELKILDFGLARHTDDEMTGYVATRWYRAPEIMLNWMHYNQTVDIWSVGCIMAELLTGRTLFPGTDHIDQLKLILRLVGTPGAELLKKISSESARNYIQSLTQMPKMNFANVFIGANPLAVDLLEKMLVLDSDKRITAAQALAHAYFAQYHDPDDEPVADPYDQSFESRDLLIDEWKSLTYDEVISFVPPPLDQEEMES

In the case of `CC(C)(C)c1cc(C(=O)N2CCNC(=O)CC2)c(NC(=O)Nc2ccc(O)c(Cl)c2Cl)s1`, the IC50 is under 5 µM.
Still for that read-out and setting: the result for `CN(C)CCNC(=O)CN1CCN(C(=O)c2cc(C(C)(C)C)sc2NC(=O)Nc2cccc(Cl)c2Cl)CC1` reads under 5 µM.
Still for that read-out and setting: the result for `COc1ccccc1NC(=O)Nc1sc(C(C)(C)C)cc1C(=O)N1CCNC(=O)CC1` reads under 5 µM.
On the same count and under the same terms, the value for `CC(C)(C)c1cc(C(=O)N2CCNC(=O)C23CCCC3)c(NC(=O)Nc2cccc(Cl)c2Cl)s1` was under 5 µM.
The molecule `Cc1c(Cl)cccc1NC(=O)Nc1sc(C(C)(C)C)cc1C(=O)N1CCNC(=O)C1(C)CCO` (stereo not given) showed a 50% inhibitory concentration (IC50) of under 5 µM.
Same read-out and setting: the result for `COC(=O)CC1(C)C(=O)NCCN1C(=O)c1cc(C(C)(C)C)sc1NC(=O)Nc1ccc(F)c(Cl)c1Cl` (stereo not given) reads under 5 µM; that for `CC(=O)N1CCN(C(=O)c2cc(C(C)(C)C)sc2NC(=O)Nc2cccc(Cl)c2Cl)CC1`, under 5 µM; that for `CN(C)CCN1CCN(C(=O)c2[nH]c(C(C)(C)C)cc2NC(=O)Nc2ccc(F)c(Cl)c2Cl)CCC1=O`, under 5 µM.
Still for that read-out and setting: the value for `COC(=O)c1ccc(NC(=O)Nc2cc(C(C)(C)C)sc2C(=O)N2CCNC(=O)C2(C)C)c(Cl)c1` was under 5 µM.
For the molecule `CN(C)CCNC(=O)CN1CCN(C(=O)c2nc(C(C)(C)C)sc2NC(=O)Nc2cccc(Cl)c2Cl)C(C)(C)C1=O`, the IC50 was under 5 µM.
Still for that read-out and setting: the value for `CCOC(=O)C1(C)C(=O)NCCN1C(=O)c1cc(C(C)(C)C)sc1NC(=O)Nc1cccc(Cl)c1Cl` (stereo not given) was under 5 µM.
Molecule `CC(C)(C)c1cc(C(=O)N2CCC(=O)N(CC(N)=O)CC2)c(NC(=O)Nc2cccc(Cl)c2Cl)s1` registered an inhibition of 76 to 100%.
`CN(C)CCN1CCN(C(=O)c2cc(C(C)(C)C)sc2NC(=O)Nc2ccccc2Cl)CCC1=O` displayed a half-inhibitory concentration (IC50) of under 5 µM.
For `CC(C)(C)c1cc(C(=O)N2CCNC(=O)CC2)c(NC(=O)Nc2ccc3ocnc3c2)s1`, the inhibition is 76 to 100%.
Consider `CC(C)(C)c1cc(C(=O)N2CCN(CC(=O)NCC(F)(F)F)C(=O)C2(C)C)c(NC(=O)Nc2cccc(Cl)c2Cl)s1`, for which the IC50 was under 5 µM.
`CC(C)(C)c1cc(C(=O)N2CCNC(=O)CC2)c(NC(=O)Nc2cnc(O)c3ccccc23)s1` showed an inhibition of 26 to 50%.
Molecule `CC(C)(C)c1cc(C(=O)N2CCS(=O)(=O)CC2)c(NC(=O)Cc2cccc(Cl)c2Cl)s1` showed an IC50 of under 5 µM.
On to `Cc1noc(CC2(C)C(=O)NCCN2C(=O)c2cc(C(C)(C)C)sc2NC(=O)Nc2ccc(F)c(Cl)c2Cl)n1` (stereo not given), for which the IC50 is under 5 µM.
The same measure, in the same setting: the value for `CC(C)(C)c1cc(C(=O)N2CCN(CCC(=O)O)C(=O)C2(C)C)c(NC(=O)Nc2cccc(Cl)c2Cl)s1` was under 5 µM.
Same read-out and setting: the value for `CN(C)CCNC(=O)CN1CCN(C(=O)c2sc(C(C)(C)C)cc2NC(=O)Nc2cccc(Cl)c2Cl)C(C)(C)C1=O` was under 5 µM; that for `CC(C)(C)c1cc(C(=O)N2CCNC(=O)C2(C)C)c(NC(=O)Nc2cc(Cl)cc(Cl)c2)s1` was under 5 µM.
Same read-out and setting: the value for `CC(C)(C)c1cc(C(=O)N2CCNC(=O)[C@@H]2CCc2ccccc2)c(NC(=O)Nc2cccc(Cl)c2Cl)s1` was under 5 µM.
`CN(C)CCN1CCN(C(=O)c2cc(C(C)(C)C)sc2NC(=O)Nc2ccccc2C(F)(F)F)C(C)(C)C1=O` yielded an IC50 of under 5 µM.
Turning to `CC(C)(C)c1nc(NC(=O)Nc2cccc3ccccc23)c(C(=O)N2CCNC(=O)CC2)s1`, the inhibition lay in the range of 76 to 100%.
For `CC(C)(C)c1cc(C(=O)N2CCNC(=O)CC2)c(NC(=O)Nc2ccc(F)c(F)c2Cl)s1`, the IC50 was under 5 µM.
On the same count and under the same terms, the value for `CN(C)CCN1CCN(C(=O)c2cc(C(C)(C)C)sc2NC(=O)Nc2cccc(Cl)c2Cl)CC(C)(C)C1=O` was under 5 µM; that for `CC(C)(C)c1nc(C(=O)N2CCNC(=O)C2(C)C)c(NC(=O)Nc2ccc(F)c(Cl)c2Cl)s1` was under 5 µM.
For `COC(=O)CC1C(=O)NCCN1C(=O)c1cc(C(C)(C)C)sc1NC(=O)Nc1ccc2ccccc2c1` (stereo not given), the inhibition lay within 76 to 100%.
Turning to `CC(C)(C)c1nc(C(=O)N2CCNS(=O)(=O)CC2)c(NC(=O)Nc2cccc(Cl)c2Cl)s1`, the IC50 was under 5 µM.
Same read-out and setting: the result for `COC(=O)CN1CCN(C(=O)c2cc(C(C)(C)C)sc2NC(=O)Nc2ccc(F)c(Cl)c2Cl)C(C)(C)C1=O` reads under 5 µM.
